Measured values from patent publication US20090054235A1, “Benzoheterocyclylethylbenzamide derivatives” (priority 2005, published 2009).

Test system: Pyrenophora teres
Assay: In vivo test on Pyrenophora teres (preventive spray on barley plants)
Conditions: barley plants (Express variety), grading 12 days after contamination, in comparison with control plants
Method: The active ingredient tested is prepared by potter homogenisation in a concentrated suspension type formulation at 100 g/l. This suspension is then diluted with water to obtain the desired active material concentration.
Barley plants (Express variety) in starter cups, sown on a 50/50 peat soil-pozzolana substrate and grown at 12° C., are treated at the 1-leaf stage (10 cm tall) by spraying with the aqueous suspension described above. Plants, used as controls, are treated with an aqueous solution not containing the active material. After 24 hours, the plants are contaminated by spraying them with an aqueous suspension of Pyrenophora teres spores (12,000 spores per ml). The spores are collected from a 12-day-old culture. The contaminated barley plants are incubated for 24 hours at about 20° C. and at 100% relative humidity, and then for 12 days at 80% relative humidity.
Grading is carried out 12 days after the contamination, in comparison with the control plants.

Compound: O=C(NCCc1c[nH]c2ccc(Br)cc12)c1ccccc1C(F)F [N.[2-(5-bromo-1H-indol-3-yl)ethyl]-2-(difluoromethyl)benzamide]
- protection (dose of 500 ppm): no protection at all

Compound: O=C(NCCc1c[nH]c2ccc(Br)cc12)c1ccccc1C(F)(F)F [N.[2-(5-bromo-1H-indol-3-yl)ethyl]-2-(trifluoromethyl)benzamide]
- protection (dose of 330 ppm): no protection at all

Compound: O=C(NCCc1c[nH]c2ccc(Br)cc12)c1ccccc1Cl [N.[2-(5-bromo-1H-indol-3-yl)ethyl]-2-chlorobenzamide]
- protection (dose of 500 ppm): no protection at all

Compound: O=C(NCCc1c[nH]c2ccc(Br)cc12)c1ccccc1I [N.[2-(5-bromo-1H-indol-3-yl)ethyl]-2-iodobenzamide]
- protection (dose of 500 ppm): no protection at all
